Patent US12351565B2, “Aromatic compound and preparation method therefor and use thereof” (SHANGHAI JIANHE PHARMACEUTICAL & TECHNOLOGY CO. LTD., priority 2018, dated 2025)
Structures can show the parent of a compound that is named as a salt. Where two headings read alike, the source gives them in different places.

How the values were obtained:
hERG potassium channel = biological target: T1, hERG potassium channel (Homo sapiens, UniProt Q12809); assay: hERG potassium channel inhibition experiment (automatic patch clamp, CHO-hERG cells); type: cell-based; conditions: Qpatch, highest tested concentration 40 μM, read-out: IC50, blocking effect on the hERG potassium current
T1 construct: expressed in transfected cells
T1 sequence (Q12809 whole entry): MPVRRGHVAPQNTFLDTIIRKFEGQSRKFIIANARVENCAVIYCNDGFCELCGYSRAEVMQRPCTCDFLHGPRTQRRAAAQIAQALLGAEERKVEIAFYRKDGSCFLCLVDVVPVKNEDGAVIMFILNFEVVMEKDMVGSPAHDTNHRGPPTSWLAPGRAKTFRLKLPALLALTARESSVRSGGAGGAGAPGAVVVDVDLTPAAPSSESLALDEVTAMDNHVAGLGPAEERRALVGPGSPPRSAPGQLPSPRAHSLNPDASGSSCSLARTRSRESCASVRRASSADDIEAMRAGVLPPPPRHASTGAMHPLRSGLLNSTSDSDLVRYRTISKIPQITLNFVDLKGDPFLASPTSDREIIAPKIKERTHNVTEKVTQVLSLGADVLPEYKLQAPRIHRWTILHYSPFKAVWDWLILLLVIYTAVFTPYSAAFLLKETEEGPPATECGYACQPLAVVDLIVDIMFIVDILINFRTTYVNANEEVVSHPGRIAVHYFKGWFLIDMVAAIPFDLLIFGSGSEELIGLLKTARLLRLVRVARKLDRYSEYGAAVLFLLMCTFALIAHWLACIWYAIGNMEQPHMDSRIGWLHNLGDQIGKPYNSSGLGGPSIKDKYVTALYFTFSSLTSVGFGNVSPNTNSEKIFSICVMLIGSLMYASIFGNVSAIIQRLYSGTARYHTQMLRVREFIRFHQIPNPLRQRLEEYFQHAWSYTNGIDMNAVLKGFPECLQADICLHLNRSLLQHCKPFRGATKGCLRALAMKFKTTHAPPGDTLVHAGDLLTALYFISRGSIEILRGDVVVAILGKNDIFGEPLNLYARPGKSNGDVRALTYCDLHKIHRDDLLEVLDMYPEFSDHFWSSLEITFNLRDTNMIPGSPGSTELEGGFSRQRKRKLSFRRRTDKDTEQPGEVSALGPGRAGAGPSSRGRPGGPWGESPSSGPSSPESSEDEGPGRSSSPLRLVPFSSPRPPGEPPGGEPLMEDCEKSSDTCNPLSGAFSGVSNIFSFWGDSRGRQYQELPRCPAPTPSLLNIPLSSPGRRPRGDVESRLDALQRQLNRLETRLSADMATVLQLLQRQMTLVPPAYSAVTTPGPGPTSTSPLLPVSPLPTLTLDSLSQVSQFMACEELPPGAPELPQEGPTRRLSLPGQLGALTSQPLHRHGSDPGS
Description: Fully automatic patch clamps were used to test the blocking effect of the compounds of the present invention on the hERG potassium current on a stable cell line transfected with hERG potassium channels.
CHO-hERG cells were cultured in 175 cm^2 culture flask. When the cell grew to 60-80% confluence, the culture medium was removed. The cells were washed with 7 ml PBS (Phosphate Buffered Saline) once, and then 3 ml Detachin was added to digest.
After the digestion was completed, 7 ml culture medium was added to neutralize. The mixture was centrifuged, and after the supernatant was removed, 5 ml culture medium was added to resuspend to ensure the cell density was 2×10^6-5×10^6/ml.
Single-cell high-impedance sealing and whole-cell mode formation were all automatically completed by using the Qpatch instrument. After the recording mode was obtained, the cell was clamped at −80 millivolts. Before +40 millivolt depolarization stimulation for 5 seconds was given, −50 millivolt pre-voltage for 50 millisecond was first given, then repolarized to −50 millivolt for 5 seconds, and then returned to −80 millivolt. This voltage stimulus was applied every 15 seconds. After recording for 2 min, extracellular fluid was given, and recording was conducted for 5 min, and then the dosing process started. The compound concentration started from the lowest test concentration, and each test concentration was given for 2.5 min. […] At least 3 cells per concentration (n≥3) were tested.
20 mM compound mother liquor was diluted with extracellular fluid. 5 μL of 20 mM compound mother liquor was taken and added into 2495 μL extracellular fluid, so that it was diluted 500 times to 40 μM, and was then serially diluted 3 times in an extracellular fluid containing 0.2% DMSO to obtain the final concentration to be tested.
The highest tested concentration was 40 μM, and the concentrations were in order as follows: 40, 13.33, 4.44, 1.48, 0.49, 0.16 μM, totally 6 concentrations.
Experimental data were analyzed by XLFit software.

C57 mice [1] = assay: Forced swimming experiment, intraperitoneal administration to mice; type: in vivo; conditions: Mus musculus, ip
Description: The forced-swimming test is currently the most widely used classic method to evaluate the antidepressant effects of compounds in rodents. […] The time in immobile state of experimental animal is observed and recorded, which can be used to evaluate the effect of antidepressant compounds.
1 h and 24 h after a single intraperitoneal administration of 10 mg/kg, forced swimming tests were respectively carried out to investigate the effects of different compounds on depression-like behaviors of C57 mice.
(§1) Experimental animals were 6-week aged C57 mice, male, and C57 mice were purchased from Shanghai SLAC Laboratory Animal Co., Ltd., with a body weight of 20.45±0.19 g. Before the experiment, they arrived at the Animal Feeding Center of Shanghai Institute of Materia Medica, Chinese Academy of Sciences (Animal Production License: SCXK9[Shanghai]2004-0002, usage license: SYXK[Shanghai]2003-0029), and adapted for 3 days or more in animal facilities. They were bred at 6 animals/cage. The breeding environment was room temperature 23±0.2° C., with 12/12 hours alternation of day and night. Before the behavioral test, the animals should be moved to the behavioral test operation room 2 hours in advance to adapt to the environment and reduce their tension.
Preparation of the test product: each test compound was accurately weighed and dissolved in 0.9% NaCl solution, mixed thoroughly, and prepared as a 1 mg/ml solution, set aside.
(§2) 24 hours before the administration, the mice were placed in a cylindrical tank to adapt to the aquatic environment for 10 min. On the day of the behavioral test, the animals were respectively administered intraperitoneally once at 1 h and 24 h before the behavioral test. The mice were placed individually into a cylindrical glass tank with a height of 30 cm and a diameter of 20 cm. The water depth in the tank was 15 cm, so that the animals could not escape from the glass tank and their feet and tails could not touch the bottom of the tank, the water temperature was 23° C.-25° C. A 6 minute video was taken after the mouse entered into water. Since most animals were very active in the first two minutes, the immobility time in the following 4 minute were calculated (criterion of immobility: the mouse stops struggling in the water, stays still and has small limbs movement to maintain balance or to keep a floating state).
(§3) The antidepressant effect of a compound was evaluated by the ability of the compound to reduce the immobility time of the animal in the forced swimming test as compared with the blank group. The shorter the immobility time of the animal to be tested, the higher the inhibition rate and the stronger the antidepressant activity. Inhibition rate1 h(%)=immobility time(blank, 1 h)−immobility time(administration, 1 h)/immobility time(blank, 1 h)×100% Inhibition rate24 h(%)=immobility time(blank, 24 h)−immobility time(administration, 24 h)/immobility time(blank, 24 h)×100%

C57 mice [2] = assay: Forced swimming experiment, oral administration to mice; type: in vivo; conditions: inhibition of immobility time, C57 mice; for 1 h inhibition rate: forced swimming 1 h after single oral (intragastric) 20 mg/kg; for 24 h inhibition rate: forced swimming 24 h after single oral (intragastric) 20 mg/kg
Description: 1 h and 24 h after a single oral administration of 20 mg/kg, forced swimming experiments were then carried out to investigate the effects of different compounds on depression-like behavior in C57 mice.
as §1, with “male,” for “male, and”
Preparation of the test product: each test compound was accurately weighed and dissolved in 0.9% NaCl solution, mixed thoroughly, and prepared into 1 mg/ml and 2 mg/ml solutions respectively, and set aside.
as §2, with “intragastrically” for “intraperitoneally”
as §3, with “group.” for “group. The shorter the immobility time of the animal to be tested, the higher the inhibition rate and the stronger the antidepressant activity.”, “rate24h(%)=immobility” for “rate24 h(%)=immobility”

[3] = In vivo pharmacokinetic experiment in rats; conditions: SD rats
Description: Healthy male SD rats were randomly divided into groups with 3 rats in each group, and the test compounds were administrated intragastrically or by intravenous injection. See Table 8 below for specific arrangements:
(§4) Each test compound was dissolved in physiological saline to prepare a certain concentration of solution for administration.
(§5) One day before administration, the rats were fasted and allowed to drink freely for 12-14 h. The rats were fed 4 h after administration. 0.030 mL of blood was took from each animal each time through the orbit, and anticoagulated with EDTAK2 anticoagulation. The collection time points were as follows: in PO group, 5 min, 10 min, 15 min, 30 min, 1 h, 2 h, 4 h, 6 h, 8 h, 24 h after administration of test substance; in IV group, 2 min, 5 min, 15 min, 30 min, 1 h, 2 h, 4 h, 6 h, 8 h, 24 h after administration of test substance. After blood samples were collected, they were placed on ice and centrifuged to separate the plasma within 30 minutes (centrifugation conditions: 5000 rpm, 10 minutes, 4° C.). The sample were stored at −80° C. before analysis.

[4] = In vivo pharmacokinetic experiment in mice; conditions: C57 mice
Description: Healthy male C57 mice were randomly divided into groups with 3 mice in each group, and the test compounds were administrated intragastrically or by intravenous injection. See Table 6 below for specific arrangements:
as §4
(§6) One day before administration, the mice were fasted and allowed to drink freely for 12-14 h. The mice were fed 4 h after administration.
as §5, with “0.030” for “One day before administration, the rats were fasted and allowed to drink freely for 12-14 h. The rats were fed 4 h after administration. 0.030”, “EDTAK2.” for “EDTAK2 anticoagulation.”, “5” for “5 min, 10”

[5] = Distribution in mouse brain tissue; type: in vivo, C57 mice
Description: Healthy male C57 mice were randomly divided into groups with 3 mice in each group, and the test compound was administrated intragastrically. See Table 10 below for specific arrangements:
as §4, §6
After the animals were bled, the brain tissue was collected. After washing, 50% ice methanol was added for homogenate at 1:4 (m/v). The collection time points was 10 min, 15 min, 30 min, 1 h, 2 h after administration of the test substance; 30.0 μL of tissue sample was taken (the sample was taken out from the refrigerator at −80° C., vortexed for 30 seconds after natural melting at room temperature) and added into a 1.5 mL centrifuge tube. 300.0 μL internal standard solution (30 ng/mL […] acetonitrile solution) was added, the mixture was vortex for 60 seconds and then centrifuged for 3 minutes (centrifugal force was 12000 rpm); 75 μL of the supernatant was taken and transferred to 96-well injection plate loaded with equal volume of water, shaken and mixed well, and subjected to LC-MS/MS analysis, wherein injection volume was 10 μL.

[6] = 1 h, read-out: 1 h inhibition rate
[7] = 24 h, read-out: 24 h inhibition rate
[8] = male, rat, iv, 10 mg/kg i.v., plasma
[9] = male, rat, po, 10 mg/kg p.o., plasma
[10] = male, rat, po, 100 mg/kg p.o., plasma
[11] = male, mouse, iv, 5 mg/kg i.v., plasma
[12] = male, mouse, po, 20 mg/kg p.o., plasma

Cl.NC1(c2cccc(F)c2F)CCCC(O)C1=O (stereo not shown) [Compound 44, 2-amino-2-(2,3-difluorophenyl)-6-hydroxycyclohexane-1-one hydrochloride]
IC50 (hERG potassium channel): > 40 µM
inhibition in vivo at 10 mg/kg (C57 mice [1]; [6]): 36.5 ± 2.9%
inhibition in vivo at 10 mg/kg (C57 mice [1]; [7]): 53.5 ± 0.2%
1 h inhibition rate (C57 mice [2]): 27.3 ± 1.2%
24 h inhibition rate (C57 mice [2]): 22.3 ± 2.3%

NC1(c2ccccc2C(F)(F)F)CCCC(O)C1=O (stereo not shown) [Compound 45, 2-amino-6-hydroxy-2-(2-(trifluoromethyl)phenyl)cyclohexane-1-one hydrochloride]
IC50 (hERG potassium channel): > 40 µM
inhibition in vivo at 10 mg/kg (C57 mice [1]; [6]): 33 ± 4.1%
inhibition in vivo at 10 mg/kg (C57 mice [1]; [7]): 44.5 ± 2.2%

Cl.N[C@@]1(c2ccc(C(F)(F)F)cc2)CCC[C@@H](O)C1=O [Compound 50, (2R,6R)-2-amino-6-hydroxy-2-(4-(trifluoromethyl)phenyl)cyclohexane-1-one hydrochloride]
AUC0-t ([3]; 10 mg/kg i.v., plasma): 10976 ngh/mL
AUC0-∞ ([3]; 10 mg/kg i.v., plasma): 11306 ngh/mL
F ([3]; 10 mg/kg p.o.): 82.5%
AUC0-t ([3]; 10 mg/kg p.o., plasma): 9060 ngh/mL
AUC0-∞ ([3]; 10 mg/kg p.o., plasma): 9533 ngh/mL
F ([3]; 100 mg/kg p.o.): 77.8%
AUC0-t ([3]; 100 mg/kg p.o., plasma): 85478 ngh/mL
AUC0-∞ ([3]; 100 mg/kg p.o., plasma): 87916 ngh/mL
MRT [3, 8]: 4.56 h
half-life [3, 8]: 4.84 h
clearance ([3]; male, rat, plasma, iv, 10 mg/kg i.v.): 14.8 mL/min/kg
Vd ([3]; male, rat, plasma, iv, 10 mg/kg i.v., read-out: Vss): 4.03 L/kg
Cmax [3, 9]: 3110 ng/mL
MRT [3, 9]: 6.29 h
Tmax [3, 9]: 0.31 h
half-life [3, 9]: 5.73 h
Cmax [3, 10]: 17300 ng/mL
MRT [3, 10]: 5.47 h
Tmax [3, 10]: 0.67 h
half-life [3, 10]: 4.86 h
1 h inhibition rate (C57 mice [2]): 34.5 ± 3.1%
24 h inhibition rate (C57 mice [2]): 35.6 ± 3.6%
AUC0-t ([4]; 5 mg/kg i.v., plasma): 3022 ngh/mL
AUC0-∞ ([4]; 5 mg/kg i.v., plasma): 3075 ngh/mL
F ([4]; 20 mg/kg p.o. vs 5 mg/kg i.v.): 112%
AUC0-t ([4]; 20 mg/kg p.o., plasma): 13548 ngh/mL
AUC0-∞ ([4]; 20 mg/kg p.o., plasma): 13624 ngh/mL
MRT [4, 11]: 1.29 h
half-life [4, 11]: 1.67 h
clearance ([4]; male, mouse, plasma, iv, 5 mg/kg i.v.): 27.2 mL/min/kg
Vd ([4]; male, mouse, plasma, iv, 5 mg/kg i.v., read-out: Vss): 2.1 L/kg
Cmax [4, 12]: 8100 ng/mL
MRT [4, 12]: 2.49 h
Tmax [4, 12]: 6.6 min
half-life [4, 12]: 4.16 h
AUC0-∞ ([5]; C57 mouse brain tissue, 20 mg/kg p.o.): 18509 ng·h/g
concentration at 10 min ([5]; male, brain, po, C57 mouse, 20 mg/kg p.o. (intragastrically), 10 min): 19400 ng/g
half-life ([5]; male, po, C57 mouse brain tissue, 20 mg/kg p.o.): 1.44 h

NC1(c2c(F)cc(F)cc2F)CCCC(O)C1=O (stereo not shown) [Compound 73, 2-amino-6-hydroxy-2-(2,4,6-trifluorophenyl)cyclohexane-1-one hydrochloride]
IC50 (hERG potassium channel): > 40 µM
inhibition in vivo at 10 mg/kg (C57 mice [1]; [6]): 38.6 ± 6%
inhibition in vivo at 10 mg/kg (C57 mice [1]; [7]): 36.9 ± 3.9%
